Legend:
Test in all cases: Herbicide activity test in green house
Type in all cases: in vivo
[1] = tested on: pig weed; conditions: dose 1.25 kg/ha, sprayed at 2-4 leaves, evaluated on 14th day
[2] = tested on: white mustard; conditions: dose 1.25 kg/ha, sprayed at 2-4 leaves, evaluated on 14th day
[3] = tested on: pig weed; conditions: sprayed at 2-4 leaves, evaluated on 14th day
Method: (§1) In culture dishes white mustard, pig weed, fat hen, autumn wheat, Italian grass and corn seeds were sown. When the seeds were sprouted 10% EC and 10% WSC were prepared from the compounds to be tested, and after dilution with water 0.2% spray was prepared. 2-4 leaves plants were sprayed with this liquid so that for each compound a dose corresponding to 2.5-5-10 kg./ha active ingredient was used. On the 14th day after the treatment the extent of the injury of the plants was evaluated and expressed in %.

[4] = tested on: Italian grass; conditions: sprayed at 2-4 leaves, evaluated on 14th day
Method: as §1

[5] = tested on: corn; conditions: sprayed at 2-4 leaves, evaluated on 14th day
Method: as §1

[6] = tested on: fat hen; conditions: sprayed at 2-4 leaves, evaluated on 14th day
Method: as §1

[7] = tested on: autumn wheat; conditions: sprayed at 2-4 leaves, evaluated on 14th day
Method: as §1

[8] = tested on: white mustard; conditions: sprayed at 2-4 leaves, evaluated on 14th day
Method: as §1

[9] = tested on: fat hen; conditions: dose 1.25 kg/ha, sprayed at 2-4 leaves, evaluated on 14th day
[10] = tested on: Italian grass; conditions: dose 1.25 kg/ha, sprayed at 2-4 leaves, evaluated on 14th day
[11] = tested on: corn; conditions: dose 1.25 kg/ha, sprayed at 2-4 leaves, evaluated on 14th day
[12] = tested on: autumn wheat; conditions: dose 1.25 kg/ha, sprayed at 2-4 leaves, evaluated on 14th day

O=[N+]([O-])c1cc([N+](=O)[O-])c(O)c(C(F)(F)F)c1 [2-trifluoromethyl-4,6-dinitro-phenol-Na]
extent of the injury of the plants, pig weed [1]: 60%
extent of the injury of the plants, white mustard [2]: 50%
extent of the injury of the plants, pig weed ([3]; dose 2.5 kg/ha): 85%
extent of the injury of the plants, pig weed ([3]; dose 5.0 kg/ha): 100%
extent of the injury of the plants, Italian grass ([4]; dose 2.5 kg/ha): 10%
extent of the injury of the plants, Italian grass ([4]; dose 5.0 kg/ha): 15%
extent of the injury of the plants, corn ([5]; dose 2.5 kg/ha): 10%
extent of the injury of the plants, corn ([5]; dose 5.0 kg/ha): 15%
extent of the injury of the plants, fat hen ([6]; dose 2.5 kg/ha): 90%
extent of the injury of the plants, fat hen ([6]; dose 5.0 kg/ha): 100%
extent of the injury of the plants, autumn wheat ([7]; dose 2.5 kg/ha): 0%
extent of the injury of the plants, autumn wheat ([7]; dose 5.0 kg/ha): 15%
extent of the injury of the plants, white mustard ([8]; dose 2.5 kg/ha): 80%
extent of the injury of the plants, white mustard ([8]; dose 5.0 kg/ha): 100%
extent of the injury of the plants, fat hen [9]: 70%
extent of the injury of the plants, Italian grass [10]: 0%
extent of the injury of the plants, corn [11]: 0%
extent of the injury of the plants, autumn wheat [12]: 0%

O=[N+]([O-])c1cc([N+](=O)[O-])c(O)c(C(F)(F)F)c1 [2-trifluoromethyl-4,6-dinitro-phenol, 2-Trifluoromethyl-4,6-dinitro-phenol]
extent of the injury of the plants, pig weed [1]: 50%
extent of the injury of the plants, white mustard [2]: 45%
extent of the injury of the plants, pig weed ([3]; dose 2.5 kg/ha): 85%
extent of the injury of the plants, pig weed ([3]; dose 5.0 kg/ha): 100%
extent of the injury of the plants, Italian grass ([4]; dose 2.5 kg/ha): 10%
extent of the injury of the plants, Italian grass ([4]; dose 5.0 kg/ha): 30%
extent of the injury of the plants, corn ([5]; dose 2.5 kg/ha): 5%
extent of the injury of the plants, corn ([5]; dose 5.0 kg/ha): 15%
extent of the injury of the plants, fat hen ([6]; dose 2.5 kg/ha): 90%
extent of the injury of the plants, fat hen ([6]; dose 5.0 kg/ha): 100%
extent of the injury of the plants, autumn wheat ([7]; dose 2.5 kg/ha): 5%
extent of the injury of the plants, autumn wheat ([7]; dose 5.0 kg/ha): 10%
extent of the injury of the plants, white mustard ([8]; dose 2.5 kg/ha): 75%
extent of the injury of the plants, white mustard ([8]; dose 5.0 kg/ha): 95%
extent of the injury of the plants, fat hen [9]: 75%
extent of the injury of the plants, Italian grass [10]: 0%
extent of the injury of the plants, corn [11]: 0%
extent of the injury of the plants, autumn wheat [12]: 0%

O=[N+]([O-])c1cc([N+](=O)[O-])c(O)c(C(F)(F)F)c1 [2-trifluoromethyl-4,6-dinitro-phenol-K]
extent of the injury of the plants, pig weed [1]: 45%
extent of the injury of the plants, white mustard [2]: 65%
extent of the injury of the plants, pig weed ([3]; dose 2.5 kg/ha): 85%
extent of the injury of the plants, pig weed ([3]; dose 5.0 kg/ha): 100%
extent of the injury of the plants, Italian grass ([4]; dose 2.5 kg/ha): 10%
extent of the injury of the plants, Italian grass ([4]; dose 5.0 kg/ha): 15%
extent of the injury of the plants, corn ([5]; dose 2.5 kg/ha): 10%
extent of the injury of the plants, corn ([5]; dose 5.0 kg/ha): 15%
extent of the injury of the plants, fat hen ([6]; dose 2.5 kg/ha): 90%
extent of the injury of the plants, fat hen ([6]; dose 5.0 kg/ha): 100%
extent of the injury of the plants, autumn wheat ([7]; dose 2.5 kg/ha): 0%
extent of the injury of the plants, autumn wheat ([7]; dose 5.0 kg/ha): 15%
extent of the injury of the plants, white mustard ([8]; dose 2.5 kg/ha): 75%
extent of the injury of the plants, white mustard ([8]; dose 5.0 kg/ha): 90%
extent of the injury of the plants, fat hen [9]: 70%
extent of the injury of the plants, Italian grass [10]: 0%
extent of the injury of the plants, corn [11]: 0%
extent of the injury of the plants, autumn wheat [12]: 0%

CCC(=O)Oc1c([N+](=O)[O-])cc([N+](=O)[O-])cc1C(F)(F)F [2-trifluoromethyl-4,6-dinitro-phenol-ethyl carbonyl]
extent of the injury of the plants, pig weed [1]: 40%
extent of the injury of the plants, white mustard [2]: 40%
extent of the injury of the plants, pig weed ([3]; dose 2.5 kg/ha): 60%
extent of the injury of the plants, pig weed ([3]; dose 5.0 kg/ha): 80%
extent of the injury of the plants, Italian grass ([4]; dose 2.5 kg/ha): 0%
extent of the injury of the plants, Italian grass ([4]; dose 5.0 kg/ha): 10%
extent of the injury of the plants, corn ([5]; dose 2.5 kg/ha): 0%
extent of the injury of the plants, corn ([5]; dose 5.0 kg/ha): 10%
extent of the injury of the plants, fat hen ([6]; dose 2.5 kg/ha): 70%
extent of the injury of the plants, fat hen ([6]; dose 5.0 kg/ha): 80%
extent of the injury of the plants, autumn wheat ([7]; dose 2.5 kg/ha): 0%
extent of the injury of the plants, autumn wheat ([7]; dose 5.0 kg/ha): 10%
extent of the injury of the plants, white mustard ([8]; dose 2.5 kg/ha): 50%
extent of the injury of the plants, white mustard ([8]; dose 5.0 kg/ha): 80%
extent of the injury of the plants, fat hen [9]: 60%
extent of the injury of the plants, Italian grass [10]: 0%
extent of the injury of the plants, corn [11]: 0%
extent of the injury of the plants, autumn wheat [12]: 0%

O=[N+]([O-])c1cc([N+](=O)[O-])c(O)c(C(F)(F)F)c1 [2-trifluoromethyl-4,6-dinitro-phenol-diethanol-amine]
extent of the injury of the plants, pig weed [1]: 50%
extent of the injury of the plants, white mustard [2]: 40%
extent of the injury of the plants, pig weed ([3]; dose 2.5 kg/ha): 60%
extent of the injury of the plants, pig weed ([3]; dose 5.0 kg/ha): 85%
extent of the injury of the plants, Italian grass ([4]; dose 5.0 kg/ha): 10%
extent of the injury of the plants, corn ([5]; dose 5.0 kg/ha): 10%
extent of the injury of the plants, fat hen ([6]; dose 2.5 kg/ha): 75%
extent of the injury of the plants, fat hen ([6]; dose 5.0 kg/ha): 80%
extent of the injury of the plants, autumn wheat ([7]; dose 5.0 kg/ha): 10%
extent of the injury of the plants, white mustard ([8]; dose 2.5 kg/ha): 60%
extent of the injury of the plants, white mustard ([8]; dose 5.0 kg/ha): 80%
extent of the injury of the plants, fat hen [9]: 70%
extent of the injury of the plants, Italian grass [10]: 0%
extent of the injury of the plants, corn [11]: 0%
extent of the injury of the plants, autumn wheat [12]: 0%

CNC.O=[N+]([O-])c1cc([N+](=O)[O-])c(O)c(C(F)(F)F)c1 [2-trifluoromethyl-4,6-dinitro-phenol-dimethyl-amine]
extent of the injury of the plants, pig weed [1]: 50%
extent of the injury of the plants, white mustard [2]: 45%
extent of the injury of the plants, pig weed ([3]; dose 2.5 kg/ha): 65%
extent of the injury of the plants, pig weed ([3]; dose 5.0 kg/ha): 80%
extent of the injury of the plants, Italian grass ([4]; dose 2.5 kg/ha): 0%
extent of the injury of the plants, Italian grass ([4]; dose 5.0 kg/ha): 20%
extent of the injury of the plants, corn ([5]; dose 2.5 kg/ha): 0%
extent of the injury of the plants, corn ([5]; dose 5.0 kg/ha): 10%
extent of the injury of the plants, fat hen ([6]; dose 2.5 kg/ha): 75%
extent of the injury of the plants, fat hen ([6]; dose 5.0 kg/ha): 85%
extent of the injury of the plants, autumn wheat ([7]; dose 2.5 kg/ha): 0%
extent of the injury of the plants, autumn wheat ([7]; dose 5.0 kg/ha): 10%
extent of the injury of the plants, white mustard ([8]; dose 2.5 kg/ha): 55%
extent of the injury of the plants, white mustard ([8]; dose 5.0 kg/ha): 75%
extent of the injury of the plants, fat hen [9]: 70%
extent of the injury of the plants, Italian grass [10]: 0%
extent of the injury of the plants, corn [11]: 0%
extent of the injury of the plants, autumn wheat [12]: 0%

CC(=O)Oc1c([N+](=O)[O-])cc([N+](=O)[O-])cc1C(F)(F)F [2-trifluoromethyl-4,6-dinitrophenol methyl carbonyl]
extent of the injury of the plants, pig weed [1]: 50%
extent of the injury of the plants, white mustard [2]: 40%
extent of the injury of the plants, pig weed ([3]; dose 2.5 kg/ha): 80%
extent of the injury of the plants, pig weed ([3]; dose 5.0 kg/ha): 95%
extent of the injury of the plants, Italian grass ([4]; dose 2.5 kg/ha): 10%
extent of the injury of the plants, Italian grass ([4]; dose 5.0 kg/ha): 20%
extent of the injury of the plants, corn ([5]; dose 2.5 kg/ha): 0%
extent of the injury of the plants, corn ([5]; dose 5.0 kg/ha): 10%
extent of the injury of the plants, fat hen ([6]; dose 2.5 kg/ha): 90%
extent of the injury of the plants, fat hen ([6]; dose 5.0 kg/ha): 100%
extent of the injury of the plants, autumn wheat ([7]; dose 2.5 kg/ha): 0%
extent of the injury of the plants, autumn wheat ([7]; dose 5.0 kg/ha): 10%
extent of the injury of the plants, white mustard ([8]; dose 2.5 kg/ha): 70%
extent of the injury of the plants, white mustard ([8]; dose 5.0 kg/ha): 90%
extent of the injury of the plants, fat hen [9]: 70%
extent of the injury of the plants, Italian grass [10]: 0%
extent of the injury of the plants, corn [11]: 0%
extent of the injury of the plants, autumn wheat [12]: 0%
